From patent US7449480B2, “Small molecule inhibitors of HER2 expression” (Baylor College of Medicine, priority 2002, dated 2008)
Entries after “also recorded” stand apart in the source; their conditions may differ.

Legend:
[1] = test system: VP16 activation domain; experiment: Transcription reporter gene assay (GAL4 fusion, SEAP), VP16 activation domain; assay type: cell-based; settings: HEK293 cells, 20 μM, 10-hr incubation
Procedure: (§1) Mammalian expression vectors each encoding the activation domain of ESX, VP16, or NFκBp65 fused with the GAL4 DNA-binding domain were used. Each expression construct was co-transfected to HEK293Tag human kidney cells together with a reporter plasmid in which the production of secreted alkaline phosphatase (SEAP) is under control of an IL-2 promoter carrying five GAL4 binding sites. After a 24 hour incubation in the presence or absence of adamanolol, an aliquot of the culture was assayed for SEAP activity. The total amounts of transfected DNA were normalized.
(§2) mammalian expression vectors, each encoding the activation domain of ESX, VP16, or NF-κB p65 fused with the GAL4 DNA-binding domain (amino acids 1-94), were used. Each expression construct was co-transfected to HEK293Tag human kidney cells together with a reporter plasmid in which the production of secreted alkaline phosphatase (SEAP) is under control of an IL2 promoter carrying five GAL4 binding sites. After 10-hr incubation with wrenchnolol (20 μM), an aliquot of the culture was assayed for SEAP activity.

[2] = test system: ESX activation domain; experiment: Transcription reporter gene assay (GAL4 fusion, SEAP), ESX activation domain; assay type: cell-based, human; settings: HEK293 cells, 20 μM, 10-hr incubation
Procedure: as §1, §2

[3] = test system: Her2; experiment: Her2 protein expression by western blot of cell lysates; assay type: cell-based, human; settings: SK-BR3 cells, 7 μM, 24 hrs; alpha-tubulin not reduced
From the text: Sur-2 is a human homolog of […] elegans Sur-2, a protein of unknown function whose mutations suppress the phenotype of an activated ras mutation (Singh et al., 1995), and it has been linked to the transcription-activating function of the adenovirus E1A protein and the Elk-1 transcription factor. […] To test this, we designed a cell-permeable peptide that binds Sur-2 (referred to as TAT-ESX129-145). The design takes advantage of the binding affinity of ESX129-145 and the cell internalization property of the 11-aa peptide derived from the HIV TAT protein. We first examined whether TAT ESX129-145 reduces endogenous expression of the Her2 gene in three Her2-overexpressing breast cancer cell lines, SK-BR-3, MDA-MB-453, and […] (FIG. 4). Cells were incubated in the presence or absence of TAT-ESX129-145, and the protein levels of Her2 were examined by Western blot analyses of normalized amounts of cell lysates.
Her2-overexpressing SK-BR3 cells were treated by 7.3 μM of adamanolol for 24 hrs, and whole cell lysates were analyzed by western blots. […]
SK-BR3 cells were treated by 7 μM of wrenchnolol for 24 hrs, and whole cell lysates were analyzed by western blots. […]

[4] = target: T1, ESX-Sur-2 interaction (Homo sapiens, UniProt Q9ULK4); experiment: Inhibition of the ESX-Sur-2 interaction in vitro (fluorescence of FITC-ESX129-145 with GST-Sur2352-625); assay type: binding
T1 construct: made in house
T1 sequence (Q9ULK4 352-625): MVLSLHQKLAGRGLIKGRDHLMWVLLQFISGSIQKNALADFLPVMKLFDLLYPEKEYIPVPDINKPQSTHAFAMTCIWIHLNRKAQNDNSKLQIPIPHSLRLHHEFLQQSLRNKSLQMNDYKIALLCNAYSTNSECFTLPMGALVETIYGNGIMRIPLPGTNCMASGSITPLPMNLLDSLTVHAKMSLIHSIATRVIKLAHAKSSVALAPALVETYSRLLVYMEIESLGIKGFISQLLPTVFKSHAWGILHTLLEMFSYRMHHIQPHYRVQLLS
Procedure: To monitor the ESX-DRIP130 interaction, we labeled ESX129-145 with fluorescein isothiocyanate (FITC; Pierce) at the Lys144 position and measured its fluorescence spectra upon adding the glutatathione-S′-transferase (GST) fusion of DRIP130352-625. ESX129-145 was synthesized by standard Fmoc chemistry (the NH2 terminus was capped by an acetyl group during the synthesis) and purified by HPLC. The peptide was then coupled with FITC at the Lys144 position in a conjugation buffer (100 mM carbonate-bicarbonate buffer, pH 9) in dark and purified by NAP-5 desalting column (Amersham). The labeled peptide was quantified by UV and visible absorbance.
GST-Sur-2352-625 was expressed and purified. Varied concentrations of the fusion protein were added to FITC-ESX129-145 (10 nM) in phosphate buffered saline containing 2% (v/v) ethanol, and the fluorescence spectra of FITC-ESX129-145 were measured by an ABI LS-50B Fluorescence Spectrometer (Ex: 490 nm). The dissociation constant of the interaction was estimated to be 12 μM through the emission perturbation at 522 nm.
To examine the effects of adamanolol on the interaction in vitro, the ethanol component of the binding buffer was replaced with an ethanolic solution of adamanolol. The fractions of FITC-ESX129-145 (10 nM) bound to 50 μM of GST-Sur-2352-625 were estimated by measuring fluorescence emission at 522 nm. ESX129-145 and pindolol were used as positive and negative controls, respectively.
In another series of derivatives (the R3 substituents in Table 1), the adamantane group of adamanolol was substituted (11a-d). […] The binding fractions were calculated on the basis of fluorescence spectra of FITC-ESX129-145 (152 nM) in presence of GST-Sur2352-625 (212 nM) and varied concentrations of each adamanolol derivative.

[5] = target: T2, Sur-2 (GST-Sur2352-625) (Homo sapiens, UniProt Q9ULK4); experiment: Fluorescence perturbation of fluorescein conjugate 9 by GST-Sur2352-625; assay type: binding; settings: measured with fluorescein conjugate 9, emission at 522 nm
T2 construct: made in house
T2 sequence (Q9ULK4 352-625): T1 sequence (Q9ULK4 352-625)
Procedure: (§3) HeLa cell nuclear extracts were prepared as described47 and incubated with a biotin conjugate of wrenchnolol (8) (100 μM) at 4° C. for 24 hrs. The samples were incubated with Neutravidin affinity resin (Pierce) at 4° C. for 2 hrs and extensively washed with PBS buffer containing 0.5% Nonidet P-40. The bound proteins were then separated by SDS/PAGE and analyzed by western blots with an antibody against human Sur-2 or by silver-staining. A=Ao+0.5.e([9]o+(([9]o+[P]oKd)2−4[9]o[P]o)0.5)
Where A and Ao are the values of fluorescence intensity of 9 in the presence or absence of GST-Sur2352-625, respectively, and .e is the differential fluorescence intensity of 1 μM of 9 in the presence of an infinite concentration of protein and in its absence. [9]o and [P]o are the total concentrations of 9 and protein added, respectively.
The fluorescein conjugate 9 also enabled evaluation of the Kd value of the interaction between wrenchnolol and Sur-2 in vitro. Shown in FIG. 22C are relative emission intensities of 9 at 522 nm (excitation: 490 nm) in the presence of varied concentrations of GST-Sur2352-625. When a GST fusion of Sur-2 protein (GST-Sur2352-625) was added to a solution of conjugate 9, the fluorescence intensity of 9 at 522 nm was decreased ([…]).

[6] = Solubility in neutral aqueous solution; assay type: physicochemical; settings: amino group of the handle protonated
Procedure: When the amino group of the handle was protonated, wrenchnolol (7b) and its aminopropyl version (7a) became soluble up to ˜1 mM in neutral aqueous solution. The high water solubility enabled NMR analysis of these molecules in a buffered aqueous solution, and their proton signals were completely assigned through a combination of NOESY, DQF-COSY, and HOHAHA data sets (Table S1).

[7] = test system: SK-BR3 breast cancer cells; experiment: Cell viability assay (WST-1) in SK-BR3 breast cancer cells; assay type: cell-based, human
Procedure: SK-BR3 breast cancer cells were plated on 96-well plates at density of 5×10^3 cells/well and maintained for 24 hrs. The cells were then incubated with varied concentrations of each compound for 48 hrs, followed by addition of Premix WST-1 Solution (Takara). Cell viability was estimated by measuring absorbance at 450 nm after 1 hr with a SPECTRAmax microplatereader.

[8] = test system: NF-κB p65 activation domain; experiment: Transcription reporter gene assay (GAL4 fusion, SEAP), NF-κB p65 activation domain; assay type: cell-based, human; settings: HEK293 cells, 20 μM, 10-hr incubation
Procedure: as §2

[9] = target: T3, Sur-2 (Homo sapiens, UniProt Q9ULK4); experiment: Sur-2 interaction of biotin conjugate in HeLa cell nuclear extracts (Neutravidin affinity, western blot); assay type: binding; settings: 100 μM, 4° C., 24 hrs
T3 construct: HeLa cell nuclear extracts were prepared as described47 and incubated with a biotin conjugate of wrenchnolol (8); endogenous in cells; host or cells: HeLa cell nuclear extracts
T3 sequence (Q9ULK4 1-1368): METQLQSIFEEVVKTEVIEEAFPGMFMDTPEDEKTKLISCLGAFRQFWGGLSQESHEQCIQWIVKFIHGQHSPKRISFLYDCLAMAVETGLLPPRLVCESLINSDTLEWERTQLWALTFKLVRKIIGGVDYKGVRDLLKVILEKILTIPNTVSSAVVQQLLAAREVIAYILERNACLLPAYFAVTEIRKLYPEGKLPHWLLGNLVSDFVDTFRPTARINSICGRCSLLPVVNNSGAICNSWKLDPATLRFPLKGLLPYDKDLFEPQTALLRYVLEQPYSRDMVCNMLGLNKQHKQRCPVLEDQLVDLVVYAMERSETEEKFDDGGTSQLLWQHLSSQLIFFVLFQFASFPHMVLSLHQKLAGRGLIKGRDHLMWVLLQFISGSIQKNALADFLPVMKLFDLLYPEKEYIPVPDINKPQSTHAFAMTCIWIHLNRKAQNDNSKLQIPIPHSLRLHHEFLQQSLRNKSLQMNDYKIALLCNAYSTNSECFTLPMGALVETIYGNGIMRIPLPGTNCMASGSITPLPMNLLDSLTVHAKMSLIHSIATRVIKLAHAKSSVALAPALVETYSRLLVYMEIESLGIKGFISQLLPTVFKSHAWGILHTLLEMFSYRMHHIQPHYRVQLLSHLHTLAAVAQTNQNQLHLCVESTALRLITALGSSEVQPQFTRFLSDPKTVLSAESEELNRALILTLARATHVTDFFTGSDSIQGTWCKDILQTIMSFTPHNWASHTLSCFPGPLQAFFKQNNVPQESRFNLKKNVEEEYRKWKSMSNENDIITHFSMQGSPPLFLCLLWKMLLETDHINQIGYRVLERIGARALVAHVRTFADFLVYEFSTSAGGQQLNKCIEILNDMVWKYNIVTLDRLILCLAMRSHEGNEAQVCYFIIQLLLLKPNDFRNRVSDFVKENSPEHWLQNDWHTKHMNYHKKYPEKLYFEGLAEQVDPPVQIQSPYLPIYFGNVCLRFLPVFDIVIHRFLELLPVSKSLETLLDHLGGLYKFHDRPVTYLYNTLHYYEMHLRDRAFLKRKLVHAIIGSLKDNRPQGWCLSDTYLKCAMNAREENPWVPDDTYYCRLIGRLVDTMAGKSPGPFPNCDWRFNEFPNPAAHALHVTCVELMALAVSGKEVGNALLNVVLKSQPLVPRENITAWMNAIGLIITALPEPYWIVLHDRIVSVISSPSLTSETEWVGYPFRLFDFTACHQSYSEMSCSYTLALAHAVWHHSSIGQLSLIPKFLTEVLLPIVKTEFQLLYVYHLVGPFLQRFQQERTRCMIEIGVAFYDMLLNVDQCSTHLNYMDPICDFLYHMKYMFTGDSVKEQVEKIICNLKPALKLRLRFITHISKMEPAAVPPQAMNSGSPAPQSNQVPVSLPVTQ
Procedure: as §3
To confirm the interaction of wrenchnolol with Sur-2 in a cellular context, a biotin conjugate of wrenchnolol (8) was synthesized (Scheme 1) and incubated with cell nuclear extracts. The bound proteins were purified through an avidin affinity column, separated on an SDS-PAGE gel, and analyzed by western blots with a Sur-2 antibody. […] One of the silver-stained bands matched the western-blotted band of Sur-2, while the identities of the other bands remained unknown. Sur-2 (also called DRIP130 or CRSP130) is a subunit of the human mediator complexes. The additional bands may include those of the other subunits copurified with Sur-2.

[10] = test system: MCF-7 Her18; experiment: Cell death in MCF7 cells stably transfected with the Her2 gene; assay type: cell-based, human; settings: ectopic Her2 on a heterologous promoter
From the text: In contrast to the Her2-overexpressing cells, MDA-MB-468, a breast cancer cell line with no detectable levels of Her2, was resistant to TAT-ESX129-145 (FIGS. 5A and 5B). […] The effects of TAT-ESX129-145 on an MCF7 cell line stably transfected with the Her2 gene were examined.

Which “effect on the VP16 activation domain” value [1] does the source give for `Cc1ccc(S(=O)(=O)n2ccc3c(OCC(O)CN(CCCCCN)C(=O)N4CCC(C5CCN(C(=O)C67CC8CC(CC(C8)C6)C7)CC5)CC4)cccc32)cc1` (stereo not drawn) [Compound 7b, Wrenchnolol] here?
The value was “much milder effects”.

What about the “ability of the ESX activation domain to activate the reporter gene” value [2] of the same compound?
Its value is “impaired; also recorded: selectively impairs”.

And the “expression of Her2 protein” value [3]?
Its value is “reduces; also recorded: inhibition of Her2 protein expression”.

What about the IC50 ([4]; FITC-ESX129-145 (152 nM), GST-Sur2352-625 (212 nM)) of the same compound?
The IC50 was 10 ± 1.5 µM.

What about the “inhibition of the ESX-Sur-2 interaction in vitro (in words)” value ([4]; in vitro fluorescence assay) of the same compound?
The value was “more strongly than adamanolol”.

And the “Kd of the wrenchnolol-Sur-2 interaction” value [5]?
Its value is “low μM range”.

What about the “solubility in neutral aqueous solution” value [6] of the same compound?
Its value is roughly 1000 µM.

And the IC50 ([7]; 48 hrs incubation, WST-1)?
Its IC50 is 6.9 µM.

What about the “ability to kill SK-BR3 cells (biological activity, in words)” value ([7]; compared with adamanolol) of the same compound?
The value was “no less active than adamanolol”.

And the “effect on the NF-κB p65 activation domain” value [8]?
Its value is “much milder effects”.

For `O=C(O)CCCC[C@@H]1SC[C@@H]2NC(=O)N[C@@H]21` [Compound 13], which “retention of Sur-2 protein on the affinity column” value [9] is on record?
The value was “no Sur-2 protein was detected”.

Which “peptide-mediated cell death in Her2-transfected MCF7 cells” value [10] does the source give for “ESX129-145: 17-aa segment of the ESX activation domain (TSSSSDELSWIIELLEK; UniProt P78545 129-145, looked up, fragment)” here?
Its value is “resistant”.
